Publication PMC7071731 (Journal of molecular biology, 2019)

Key:
AcrB [1] = biological target: AcrB (Escherichia coli, UniProt P31224); assay: ITC; format: binding
AcrB [2] = biological target: AcrB (Escherichia coli, UniProt P31224, I27A); assay: ITC; format: binding
AcrB [3] = biological target: AcrB (Escherichia coli, UniProt P31224, V340A); assay: ITC; format: binding
AcrB [4] = biological target: AcrB (Escherichia coli, UniProt P31224, N298A); assay: ITC; format: binding
crystal structure = biological target: the molecule itself; assay: crystal structure

Chain of AcrB (Escherichia coli, UniProt P31224) (P31224 whole entry): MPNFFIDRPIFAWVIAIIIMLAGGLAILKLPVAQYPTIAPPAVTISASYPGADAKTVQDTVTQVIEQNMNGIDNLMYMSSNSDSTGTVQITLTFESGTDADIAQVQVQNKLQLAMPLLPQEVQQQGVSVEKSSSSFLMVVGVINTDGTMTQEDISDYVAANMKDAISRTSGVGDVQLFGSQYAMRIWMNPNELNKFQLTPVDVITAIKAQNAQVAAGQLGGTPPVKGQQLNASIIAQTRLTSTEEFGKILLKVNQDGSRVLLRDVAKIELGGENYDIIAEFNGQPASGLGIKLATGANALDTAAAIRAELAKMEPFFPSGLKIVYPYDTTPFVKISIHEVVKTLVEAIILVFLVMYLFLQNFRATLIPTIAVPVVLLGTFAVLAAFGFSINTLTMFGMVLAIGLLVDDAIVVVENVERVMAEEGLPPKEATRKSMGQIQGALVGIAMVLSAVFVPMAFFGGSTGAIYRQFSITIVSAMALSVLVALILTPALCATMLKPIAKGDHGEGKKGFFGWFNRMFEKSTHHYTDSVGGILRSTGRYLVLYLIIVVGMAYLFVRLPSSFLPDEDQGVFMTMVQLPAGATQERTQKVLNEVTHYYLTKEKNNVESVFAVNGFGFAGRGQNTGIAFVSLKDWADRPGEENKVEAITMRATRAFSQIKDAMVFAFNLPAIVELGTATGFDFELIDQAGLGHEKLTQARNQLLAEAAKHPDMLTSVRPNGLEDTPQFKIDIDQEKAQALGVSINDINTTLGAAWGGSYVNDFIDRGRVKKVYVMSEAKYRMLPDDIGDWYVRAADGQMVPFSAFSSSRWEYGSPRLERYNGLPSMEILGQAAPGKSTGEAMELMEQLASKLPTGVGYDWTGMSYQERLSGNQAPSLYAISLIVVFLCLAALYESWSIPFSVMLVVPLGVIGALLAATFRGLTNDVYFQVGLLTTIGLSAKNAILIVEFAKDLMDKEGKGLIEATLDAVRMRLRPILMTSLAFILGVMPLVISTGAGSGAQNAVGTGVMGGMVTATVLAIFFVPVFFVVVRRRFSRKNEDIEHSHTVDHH

Molecule | Kd (AcrB [1]) [µM] | Kd (AcrB [2]) [µM] | Kd (AcrB [3]) [µM] | Kd (AcrB [4]) [µM] | binding result (crystal structure)
CC(=O)O[C@H]1C[C@@]2(C)[C@@H](C[C@@H](O)[C@H]3[C@@]4(C)CC[C@@H](O)[C@@H](C)[C@@H]4CC[C@@]32C)/C1=C(\CCC=C(C)C)C(=O)O [FUA, fusidic acid] | 528 ± 8.6 | 405 ± 6.6 | 826.5 ± 4.8 | 1120 ± 18.2 | 
AcrB-N298A (natural protein) MPNFFIDRPIFAWVIAIIIMLAGGLAILKLPVAQYPTIAPPAVTISASYPGADAKTVQDTVTQVIEQNMNGIDNLMYMSSNSDSTGTVQITLTFESGTDADIAQVQVQNKLQLAMPLLPQEVQQQGVSVEKSSSSFLMVVGVINTDGTMTQEDISDYVAANMKDAISRTSGVGDVQLFGSQYAMRIWMNPNELNKFQLTPVDVITAIKAQNAQVAAGQLGGTPPVKGQQLNASIIAQTRLTSTEEFGKILLKVNQDGSRVLLRDVAKIELGGENYDIIAEFNGQPASGLGIKLATGAAALDTAAAIRAELAKMEPFFPSGLKIVYPYDTTPFVKISIHEVVKTLVEAIILVFLVMYLFLQNFRATLIPTIAVPVVLLGTFAVLAAFGFSINTLTMFGMVLAIGLLVDDAIVVVENVERVMAEEGLPPKEATRKSMGQIQGALVGIAMVLSAVFVPMAFFGGSTGAIYRQFSITIVSAMALSVLVALILTPALCATMLKPIAKGDHGEGKKGFFGWFNRMFEKSTHHYTDSVGGILRSTGRYLVLYLIIVVGMAYLFVRLPSSFLPDEDQGVFMTMVQLPAGATQERTQKVLNEVTHYYLTKEKNNVESVFAVNGFGFAGRGQNTGIAFVSLKDWADRPGEENKVEAITMRATRAFSQIKDAMVFAFNLPAIVELGTATGFDFELIDQAGLGHEKLTQARNQLLAEAAKHPDMLTSVRPNGLEDTPQFKIDIDQEKAQALGVSINDINTTLGAAWGGSYVNDFIDRGRVKKVYVMSEAKYRMLPDDIGDWYVRAADGQMVPFSAFSSSRWEYGSPRLERYNGLPSMEILGQAAPGKSTGEAMELMEQLASKLPTGVGYDWTGMSYQERLSGNQAPSLYAISLIVVFLCLAALYESWSIPFSVMLVVPLGVIGALLAATFRGLTNDVYFQVGLLTTIGLSAKNAILIVEFAKDLMDKEGKGLIEATLDAVRMRLRPILMTSLAFILGVMPLVISTGAGSGAQNAVGTGVMGGMVTATVLAIFFVPVFFVVVRRRFSRKNEDIEHSHTVDHH |  |  |  |  | binds
AcrB-I27A (natural protein) MPNFFIDRPIFAWVIAIIIMLAGGLAALKLPVAQYPTIAPPAVTISASYPGADAKTVQDTVTQVIEQNMNGIDNLMYMSSNSDSTGTVQITLTFESGTDADIAQVQVQNKLQLAMPLLPQEVQQQGVSVEKSSSSFLMVVGVINTDGTMTQEDISDYVAANMKDAISRTSGVGDVQLFGSQYAMRIWMNPNELNKFQLTPVDVITAIKAQNAQVAAGQLGGTPPVKGQQLNASIIAQTRLTSTEEFGKILLKVNQDGSRVLLRDVAKIELGGENYDIIAEFNGQPASGLGIKLATGANALDTAAAIRAELAKMEPFFPSGLKIVYPYDTTPFVKISIHEVVKTLVEAIILVFLVMYLFLQNFRATLIPTIAVPVVLLGTFAVLAAFGFSINTLTMFGMVLAIGLLVDDAIVVVENVERVMAEEGLPPKEATRKSMGQIQGALVGIAMVLSAVFVPMAFFGGSTGAIYRQFSITIVSAMALSVLVALILTPALCATMLKPIAKGDHGEGKKGFFGWFNRMFEKSTHHYTDSVGGILRSTGRYLVLYLIIVVGMAYLFVRLPSSFLPDEDQGVFMTMVQLPAGATQERTQKVLNEVTHYYLTKEKNNVESVFAVNGFGFAGRGQNTGIAFVSLKDWADRPGEENKVEAITMRATRAFSQIKDAMVFAFNLPAIVELGTATGFDFELIDQAGLGHEKLTQARNQLLAEAAKHPDMLTSVRPNGLEDTPQFKIDIDQEKAQALGVSINDINTTLGAAWGGSYVNDFIDRGRVKKVYVMSEAKYRMLPDDIGDWYVRAADGQMVPFSAFSSSRWEYGSPRLERYNGLPSMEILGQAAPGKSTGEAMELMEQLASKLPTGVGYDWTGMSYQERLSGNQAPSLYAISLIVVFLCLAALYESWSIPFSVMLVVPLGVIGALLAATFRGLTNDVYFQVGLLTTIGLSAKNAILIVEFAKDLMDKEGKGLIEATLDAVRMRLRPILMTSLAFILGVMPLVISTGAGSGAQNAVGTGVMGGMVTATVLAIFFVPVFFVVVRRRFSRKNEDIEHSHTVDHH |  |  |  |  | binds
AcrB-V340A (natural protein) MPNFFIDRPIFAWVIAIIIMLAGGLAILKLPVAQYPTIAPPAVTISASYPGADAKTVQDTVTQVIEQNMNGIDNLMYMSSNSDSTGTVQITLTFESGTDADIAQVQVQNKLQLAMPLLPQEVQQQGVSVEKSSSSFLMVVGVINTDGTMTQEDISDYVAANMKDAISRTSGVGDVQLFGSQYAMRIWMNPNELNKFQLTPVDVITAIKAQNAQVAAGQLGGTPPVKGQQLNASIIAQTRLTSTEEFGKILLKVNQDGSRVLLRDVAKIELGGENYDIIAEFNGQPASGLGIKLATGANALDTAAAIRAELAKMEPFFPSGLKIVYPYDTTPFVKISIHEAVKTLVEAIILVFLVMYLFLQNFRATLIPTIAVPVVLLGTFAVLAAFGFSINTLTMFGMVLAIGLLVDDAIVVVENVERVMAEEGLPPKEATRKSMGQIQGALVGIAMVLSAVFVPMAFFGGSTGAIYRQFSITIVSAMALSVLVALILTPALCATMLKPIAKGDHGEGKKGFFGWFNRMFEKSTHHYTDSVGGILRSTGRYLVLYLIIVVGMAYLFVRLPSSFLPDEDQGVFMTMVQLPAGATQERTQKVLNEVTHYYLTKEKNNVESVFAVNGFGFAGRGQNTGIAFVSLKDWADRPGEENKVEAITMRATRAFSQIKDAMVFAFNLPAIVELGTATGFDFELIDQAGLGHEKLTQARNQLLAEAAKHPDMLTSVRPNGLEDTPQFKIDIDQEKAQALGVSINDINTTLGAAWGGSYVNDFIDRGRVKKVYVMSEAKYRMLPDDIGDWYVRAADGQMVPFSAFSSSRWEYGSPRLERYNGLPSMEILGQAAPGKSTGEAMELMEQLASKLPTGVGYDWTGMSYQERLSGNQAPSLYAISLIVVFLCLAALYESWSIPFSVMLVVPLGVIGALLAATFRGLTNDVYFQVGLLTTIGLSAKNAILIVEFAKDLMDKEGKGLIEATLDAVRMRLRPILMTSLAFILGVMPLVISTGAGSGAQNAVGTGVMGGMVTATVLAIFFVPVFFVVVRRRFSRKNEDIEHSHTVDHH |  |  |  |  | binds
